Read-outs that look alike come from different tables or passages of the source.
Columns and labels:
eqBuChE = molecular target: T1, eqBuChE (Equus caballus, UniProt P81908); assay: Ellman cholinesterase inhibitory assay, eqBuChE (screening and IC50); type: biochemical; settings: for inhibition at 100 µM: compound 100 µM, substrate 3 mM
T1 construct: equine serum butyrylcholinesterase (eqBuChE); purchased Sigma-Aldrich (lyophilized powder, 10.9 U/mg); host or cells: equine serum
Protocol: (§1) Firstly, the inhibitory activity of the quercetin-1,2,3-triazole hybrids I–IV was screened in vitro on eeAChE and eqBuChE at a concentration of 100 μM (these enzymes are considered as models of the human isoform). The ChE inhibitory activity of all compounds was evaluated using the method of Ellman.
(§2) The inhibitory activities of title compounds against commercially available cholinesterases (eeAChE) (Electrophorus electricus, Type V-S), eqBuChE (equine serum), were conducted using minor modifications of Ellman’s assay. Nine different concentrations ([…], 37.5, 75, 150, and 300 μM in H2O:DMSO (50:50)) of each test compound were used to determine the enzyme-inhibition activity. Briefly, 55 μL of 50 mM Tris-HCl buffer at pH 8, 25 μL of eqBuChE (0.03 U/mL), 20 μL of the test or standard compounds, and 125 μL of DTNB (0.8 mM) were incubated in 96-well plates at 37 °C for 15 min. Further, 25 μL of the substrate, BTCI (0.8 mM), was added, and the solution was incubated for additional 15 min. Finally, the absorbance was measured at 412 nm wavelength using a Microplate Spectrophotometry (TriStar® S LB 942 model instrument). The IC50 values were determined from the absorbance obtained for various concentrations of the test and the standard compounds. All determinations were performed in triplicate.
(§3) To determine the % of inhibition ([I] = 100 μM), the substrate concentration (acetylthiocholine iodide for AChE; S-butyrylthiocholine iodide for BuChE) was fixed at 3 mM.

eeAChE = molecular target: T2, eeAChE (Electrophorus electricus, UniProt O42275); assay: Ellman cholinesterase inhibitory assay, eeAChE screening; type: biochemical; settings: compound 100 µM; substrate 3 mM
T2 construct: catalogue number not given
Protocol: as §1, §2, §3

MCF-7 cells = assay: Protective assay against hydrogen peroxide-induced oxidative stress in MCF-7 cells; type: cell-based, Human; settings: 100 µM H2O2, 2 h
Protocol: Given the importance of oxidative stress-induced apoptosis of neuronal cells in AD, we present here a study to investigate the effect of quercetin-1,2,3-triazole hybrids on H2O2-induced oxidative damage in cultured MCF-7 cells, used as a human cell model. Viability was assessed with the WST-1 test in the absence and in the presence of an oxidative stressor (10^−4 M H2O2).
MCF-7 (Human breast adenocarcinoma (MERCK—# 86012803-DNA-5UG), Database Name: ECACC collection, Accession Numbers: 86012803) was the cell line elected as a cell injury model for the study of the potential protective effect of the butyrylcholinesterase inhibitors (hybrids) against hydrogen peroxide-induced oxidative stress. Cytotoxicity of the hybrids was also evaluated.
The culture medium was subsequently replaced with different final concentrations (6.25–50 μM) of the compounds to be tested. Negative controls were prepared, incubating cells in culture media.
Parallel experiments were performed for cytotoxicity assessment and for protective effect against hydrogen peroxide-induced oxidative stress evaluation. First, 10 μL of PBS was added in the designated wells; second, 10 μL of H2O2 (reaching a final concentration of 100 µM) was added. Following a 2 h incubation period at 37 °C in 5% CO2 atmosphere incubator, cellular viability was measured by adding WST-1 dehydrogenases substrate and incubating for 1 h, and the amount of formazan dye produced was evaluated by measuring the absorbance at 440 nm.

Artemia salina = Artemia salina lethal toxicity assay; type: in vivo; settings: Artemia salina nauplii; quality control
Protocol: Artemia salina was used for in vivo general toxicity assessment of the promising hybrids IVb, IVd, and IIf; the results are shown in Table 4 and Figure 7. K2Cr2O7 was used as a control. Hybrid IVd presented the lowest toxicity.
The ARTOXKIT M protocol was used. The percentage of dyed nauplii of Artemia salina, grown in the presence of variable concentrations of the inhibitor compounds, was measured to determine the LC50 values. A test with K2Cr2O7 was used for quality control.

[1] = DPPH radical scavenging antioxidant assay; settings: 100 μg/mL
Protocol: To assess the antioxidant activity of hybrids IVa–e, IIf and quercetin, the 2,2-diphenyl-1-[…] (DPPH) radical scavenging colorimetric method was used, which is one of the most widely used methods for determining antioxidant activity. In this method, antioxidants react with DPPH (which has a strong violet color) and convert it into yellow diphenylpicrylhydrazine. Compounds were assayed in the range of concentrations from 3 to 200 μg/mL. Ascorbic acid was used as positive control. […] Another piece of evidence is the similarity between the % inhibition values of hybrids IVa,b and IVd,e and quercetin.
The colorimetric DPPH assay was carried out as described in [33]. […] In brief, 30 μL of a test compound (in MeOH) was mixed with 200 μL of DPPH (100 μM in methanol) in a 96-well plate in triplicate. After 30 min incubation at room temperature in the absence of light, the absorbances were measured at 517 nm using Microplate Spectrophotometry (TriStar® S LB 942 model instrument). The free radical scavenging activity results are expressed as a percentage of DPPH inhibition according to the following formula:
% of Inhibition = 100[(A(Blank) − A(sample))/A(blank)], where A(blank) consists of methanol (30 μL) mixed with DPPH (200 μL) absorbance, and A(sample) is the absorbance value for the added sample concentration compound mixed with DPPH. Ascorbic acid was used as a positive control.

[2] = concentration range 1.2-300 µM, BTCI 0.8 mM, read-out: IC50 values for eqBuChE

T2 sequence (O42275 24-633): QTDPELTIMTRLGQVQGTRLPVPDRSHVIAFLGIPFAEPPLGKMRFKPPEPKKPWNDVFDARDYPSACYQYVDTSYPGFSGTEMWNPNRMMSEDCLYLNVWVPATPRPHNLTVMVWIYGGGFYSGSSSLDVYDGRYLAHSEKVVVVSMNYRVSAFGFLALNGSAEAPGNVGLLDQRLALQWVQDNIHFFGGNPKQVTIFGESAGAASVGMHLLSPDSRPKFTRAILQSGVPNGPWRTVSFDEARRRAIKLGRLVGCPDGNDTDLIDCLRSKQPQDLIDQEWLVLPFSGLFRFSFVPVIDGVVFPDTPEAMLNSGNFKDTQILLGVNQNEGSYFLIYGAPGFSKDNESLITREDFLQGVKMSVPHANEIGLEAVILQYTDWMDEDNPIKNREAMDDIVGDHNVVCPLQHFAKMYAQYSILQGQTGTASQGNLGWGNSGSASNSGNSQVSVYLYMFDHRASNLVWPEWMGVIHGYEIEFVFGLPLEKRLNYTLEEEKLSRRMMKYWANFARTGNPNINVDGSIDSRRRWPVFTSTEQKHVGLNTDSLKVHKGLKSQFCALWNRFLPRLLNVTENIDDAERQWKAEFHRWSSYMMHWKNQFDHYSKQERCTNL
T1 sequence (P81908 whole entry): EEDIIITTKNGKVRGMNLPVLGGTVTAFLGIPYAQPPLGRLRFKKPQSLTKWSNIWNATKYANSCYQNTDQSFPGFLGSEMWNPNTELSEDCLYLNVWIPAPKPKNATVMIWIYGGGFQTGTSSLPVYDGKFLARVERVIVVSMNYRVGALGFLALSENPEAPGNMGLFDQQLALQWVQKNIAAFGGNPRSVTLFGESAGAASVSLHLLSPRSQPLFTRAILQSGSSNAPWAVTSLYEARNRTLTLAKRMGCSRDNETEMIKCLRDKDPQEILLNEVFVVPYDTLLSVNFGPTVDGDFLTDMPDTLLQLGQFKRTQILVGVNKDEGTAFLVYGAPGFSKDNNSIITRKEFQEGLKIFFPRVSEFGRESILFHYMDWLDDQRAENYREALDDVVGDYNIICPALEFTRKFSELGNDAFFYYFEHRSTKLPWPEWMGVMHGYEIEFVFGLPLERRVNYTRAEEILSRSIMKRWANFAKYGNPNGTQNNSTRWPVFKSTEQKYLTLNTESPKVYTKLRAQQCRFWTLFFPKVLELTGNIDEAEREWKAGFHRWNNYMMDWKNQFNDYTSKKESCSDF

Row | Structure (SMILES) | inhibition at 100 µM (eqBuChE) [%] | inhibition at 100 µM (eeAChE) [%] | IC50 (eqBuChE) [µM] | cellular antioxidant protection against H2O2 (MCF-7 cells) | LC50 (Artemia salina) [µg/mL] | IC50 (eqBuChE; [2]) [µM] | DPPH antioxidant activity [1]
1 | O=c1c(OCCCCn2cc(C3(O)CCCC3)nn2)c(-c2ccc(OCc3ccccc3)c(OCc3ccccc3)c2)oc2cc(OCc3ccccc3)cc(OCc3ccccc3)c12 [IIIc, 5,7-Bis(benzyloxy)-2-(3,4-bis(benzyloxy)phenyl)-3-(4-(4-(1-hydroxycyclopentyl)-1H-1,2,3-triazol-1-yl)butoxy)-4H-chromen-4-one] | 26.9 | 17.2 | – | – | – | – | –
2 | O=c1c(O)c(-c2ccc(O)c(O)c2)oc2cc(O)cc(O)c12 [Quercetin] | 100 | 8.18 | 18.2 | low capacity in cellular protection | – | – | –
3 | [K+].[K+].[O]=[Cr](=[O])([O-])[O][Cr](=[O])(=[O])[O-] [Hybrid K2Cr2O7, K2Cr2O7, reference compound] | – | – | – | – | 22.7 | – | –
4 | COc1cc(OC)c2c(=O)c(OCCCCn3cc(C4CC4)nn3)c(-c3ccc(OC)c(OC)c3)oc2c1 [IIb, 2-(3,4-Dimethoxyphenyl)-3-(4-(4-cyclopropyl-1H-1,2,3-triazol-1-yl)butoxy)-5,7-dimethoxy-4H-chromen-4-one] | 54.4 | 0 | – | – | – | > 300 | –
5 | COc1cc(OC)c2c(=O)c(OCCCCn3cc(CO)nn3)c(-c3ccc(OC)c(OC)c3)oc2c1 [IIg, 2-(3,4-Dimethoxyphenyl)-3-(4-(4-(hydroxymethyl)-1H-1,2,3-triazol-1-yl)butoxy)-5,7-dimethoxy-4H-chromen-4-one] | 53.8 | 0 | – | – | – | > 300 | –
6 | COc1cc(OC)c2c(=O)c(OCCCCn3cc(-c4ccccc4)nn3)c(-c3ccc(OC)c(OC)c3)oc2c1 [IIa, 2-(3,4-Dimethoxyphenyl)-5,7-dimethoxy-3-(4-(4-phenyl-1H-1,2,3-triazol-1-yl)butoxy)-4H-chromen-4-one] | 55.3 | 7.75 | – | – | – | > 300 | –
7 | CCCc1cn(CCCCOc2c(-c3ccc(OC)c(OC)c3)oc3cc(OC)cc(OC)c3c2=O)nn1 [IIh, 2-(3,4-Dimethoxyphenyl)-5,7-dimethoxy-3-(4-(4-propyl-1H-1,2,3-triazol-1-yl)butoxy)-4H-chromen-4-one] | 7.97 | 38.6 | – | – | – | > 300 | –
8 | O=c1c(OCCCCn2cc(C3(O)CCCC3)nn2)c(-c2ccc(O)c(O)c2)oc2cc(O)cc(O)c12 [IVc, 2-(3,4-Dihydroxyphenyl)-5,7-dihydroxy-3-(4-(4-(1-hydroxycyclopentyl)-1H-1,2,3-triazol-1-yl)butoxy)-4H-chromen-4-one] | 69.9 | 21.6 | – | – | – | 65.7 | –
9 | COc1cc(OC)c2c(=O)c(OCCCCn3cc(C4(O)CCCC4)nn3)c(-c3ccc(OC)c(OC)c3)oc2c1 [IIc, 2-(3,4-Dimethoxyphenyl)-3-(4-(4-(1-hydroxycyclopentyl)-1H-1,2,3-triazol-1-yl)butoxy)-5,7-dimethoxy-4H-chromen-4-one] | 69.6 | 0 | – | – | – | > 300 | –
10 | Cc1ccc(C(C)C)c(OCc2cn(CCCCOc3c(-c4ccc(O)c(O)c4)oc4cc(O)cc(O)c4c3=O)nn2)c1 [IVe, 2-(3,4-Dihydroxyphenyl)-5,7-dihydroxy-3-(4-(4-((2-isopropyl-5-methylphenoxy)methyl)-1H-1,2,3-triazol-1-yl)butoxy)-4H-chromen-4-one] | 63.4 | 29.1 | – | – | – | > 150 | potent antioxidant activity
11 | O=C1C(=O)N(Cc2cn(CCCCOc3c(-c4ccc(OCc5ccccc5)c(OCc5ccccc5)c4)oc4cc(OCc5ccccc5)cc(OCc5ccccc5)c4c3=O)nn2)c2ccccc21 [IIIf, 1-((1-(4-((5,7-Bis(benzyloxy)-2-(3,4-bis(benzyloxy)phenyl)-4-oxo-4H-chromen-3-yl)oxy)butyl)-1H-1,2,3-triazol-4-yl)methyl)indoline-2,3-dione] | 34.5 | 0 | – | – | – | – | –
12 | COc1cc(OC)c2c(=O)c(OCCCCn3cc(C(C)(C)O)nn3)c(-c3ccc(OC)c(OC)c3)oc2c1 [IId, 2-(3,4-Dimethoxyphenyl)-3-(4-(4-(2-hydroxypropan-2-yl)-1H-1,2,3-triazol-1-yl)butoxy)-5,7-dimethoxy-4H-chromen-4-one] | 60.6 | 0 | – | – | – | > 300 | –
13 | O=c1c(OCCCCn2cc(-c3ccccc3)nn2)c(-c2ccc(OCc3ccccc3)c(OCc3ccccc3)c2)oc2cc(OCc3ccccc3)cc(OCc3ccccc3)c12 [IIIa, 5,7-Bis(benzyloxy)-2-(3,4-bis(benzyloxy)phenyl)-3-(4-(4-phenyl-1H-1,2,3-triazol-1-yl)butoxy)-4H-chromen-4-one] | 46.9 | 40.6 | – | – | – | – | –
14 | COc1cc(OC)c2c(=O)c(OCc3cn(Cc4ccccc4)nn3)c(-c3ccc(OC)c(OC)c3)oc2c1 [Ia, 3-((1-Benzyl-1H-1,2,3-triazol-4-yl)methoxy)-2-(3,4-dimethoxyphenyl)-5,7-dimethoxy-4H-chromen-4-one] | 54.4 | 0 | – | – | – | – | –
15 | CC(C)(O)c1cn(CCCCOc2c(-c3ccc(OCc4ccccc4)c(OCc4ccccc4)c3)oc3cc(OCc4ccccc4)cc(OCc4ccccc4)c3c2=O)nn1 [IIId, 5,7-Bis(benzyloxy)-2-(3,4-bis(benzyloxy)phenyl)-3-(4-(4-(2-hydroxypropan-2-yl)-1H-1,2,3-triazol-1-yl)butoxy)-4H-chromen-4-one] | 27.3 | 15.1 | – | – | – | – | –
16 | COc1cc(OC)c2c(=O)c(OCc3cn(Cc4cccc(Cl)c4)nn3)c(-c3ccc(OC)c(OC)c3)oc2c1 [Ib, 3-((1-(3-Chlorobenzyl)-1H-1,2,3-triazol-4-yl)methoxy)-2-(3,4-dimethoxyphenyl)-5,7-dimethoxy-4H-chromen-4-one] | 63.3 | 0 | – | – | – | – | –
17 | COc1cc(OC)c2c(=O)c(OCCCCn3cc(C(C)(C)N)nn3)c(-c3ccc(OC)c(OC)c3)oc2c1 [IIi, 3-(4-(4-(2-Aminopropan-2-yl)-1H-1,2,3-triazol-1-yl)butoxy)-2-(3,4-dimethoxyphenyl)-5,7-dimethoxy-4H-chromen-4-one] | 74.4 | 0 | – | – | – | 70.2 | –
18 | COc1cc(OC)c2c(=O)c(OCCCCn3cc(COc4cc(C)ccc4C(C)C)nn3)c(-c3ccc(OC)c(OC)c3)oc2c1 [IIe, 2-(3,4-Dimethoxyphenyl)-3-(4-(4-((2-isopropyl-5-methylphenoxy)methyl)-1H-1,2,3-triazol-1-yl)butoxy)-5,7-dimethoxy-4H-chromen-4-one] | 81.7 | 4.13 | – | – | – | 26.6 | –
